# In patent publication US11339448B2, “Treatment of acute myeloid leukemia” (Ottawa Hospital Research Institute, priority 2018, dated 2022):
# Tests used:
# Format in all cases: cell-based, human
# [1] = system: MTF2 shRNA knockdown (SH3 or SH7) HSPCs; assay: Cell cycle (DRAQ5) and PCNA proliferation analysis in HSPCs; settings: for fraction of viable MTF2-deficient cells that were PCNA+: MTF2-deficient HSPCs, 48 hours post-treatment; for overall PCNA levels (proliferation): MTF2 deficient (SH3 or SH7) HSPCs, 1 μM, 24 hours post-treatment; for population distribution within the cell cycle stages: scramble or MTF2 knockdown HSPCs, 1 μM for 24 hours
# Description: (§1) Cells were sorted using cell surface markers, then fixed in 4% PFA, permeabilized with 0.3% Triton and stained for MTF2 (Genway, clone M96), EZH2 (Millipore, clone AC22), SUZ12 (Millipore, clone 2AO9), H3K27me3 (Cell Signaling, clone C36B11), PCNA (Santa Cruz, clone C10), p53 (Cell Signaling, clone 1C12), or MDM2 (Santa Cruz, clone C18) and appropriate secondary antibodies. Protein expression was determined by flow cytometry compared with an isotype-only control and ran on the LSRFortessa™ Cell Analyzer (BD Biosciences). Data analysis was performed using FlowJo v10.2 to compare mean fluorescent intensity values.
# (§2) For cell cycle analysis, cells were fixed and stained with DRAQ5 (BD Biosciences) to assess cell cycle state. For assessing p53 signaling and MTF2 rescue experiments, cells were stained with antibodies against p53, MDM2 or H3K27me3 as above and with DRAQ5 for nucleic acid detection. Cells were analyzed using the ImageStream imaging flow cytometer (Amnis). The nuclear contents of each protein were determined using the preset wizard tool “Nuclear Localization”, within the Amnis IDEAS analysis software.
# (§3) Lin^−CD34^+ cells isolated from either umbilical cord blood or primary AML patient bone marrow aspirates were transduced as above, sorted for GFP^+ and cultured in 96-well plates at 100,000 cells/100 uL/well in duplicates. The drugs Daunorubicin, Cytarabine, Nutlin3a and M1773 were dissolved in DMSO. Cytarabine and Daunorubicin were added at concentrations of 1 μM and 0.5 μM, respectively. After 1 hour of incubation with Daunorubicin, cells were collected and transferred into fresh media to remove Daunorubicin from the media. The MDM2 pathway inhibitors, Nutlin3a and M1773 were added at concentrations of 1 μM.
# Lin−CD34+ HSPCs [2] = assay: Alkaline comet assay (DNA damage accumulation, Olive moment); settings: for DNA damage accumulation (Olive moment): scramble vs MTF2 shRNA transduced HSPCs, over a 48-hour period; for DNA damage accumulation: MTF2-deficient HSPCs, in combination with Cytarabine or Daunorubicin
# Description: Alkaline comet assays were performed using GelBond Films and buffers were prepared as described^22. Slides were stained with SYBR Gold and imaged using Zeiss Axio2 Imaging inverted microscope equipped with a 5× Plan-NEOFLUAR 0.3NA objective and an AxioCam MRm camera through a FITC-compatible filter. At least 10 random fields containing a minimum of 20 non-overlapping comets in each group total were photographed. Blinded imaging acquisition and analysis was performed using ImageJ software (NIH) and the OpenComet comet assay plugin calculating Olive moment (arbitrary units) on the basis of comet head and tail sizes (measured in pixels) and their integral intensity. The magnitude of these parameters depends on time of electrophoresis, staining brightness and image magnification, which were constant within each assay and between experiments. Comet assays were independently repeated using HSPCs isolated from 3 different UCB samples. Statistical significance was determined by two-way ANOVA using GraphPad Prism software version 6.
# as §3
# Lin−CD34+ HSPCs [3] = assay: Cell viability / apoptosis assay (Annexin V/7-AAD) in shRNA-transduced HSPCs; settings: for sensitivity to induction therapy drugs (cell viability): MTF2-deficient HSPCs, in combination with Cytarabine or Daunorubicin
# Description: HSPCs (Lin^−CD34^+) were maintained in IMDM media containing bovine serum albumin, insulin, and transferrin (Stem Cell Technologies), 1% PenStrep (ThermoFisher), SCF (100 ng/mL), TPO (50 ng/mL), FLT3 (100 ng/mL), 1% Glutamax (InVitrogen), and LDL (1 μg/ml) (Calbiochem). Growth factors were purchased from Peprotech. On Day 1 of infection, cells were incubated with polybrene (Sigma) (6 mg/ml) for 2 hours at 37° C., then combined with viral supernatants containing either a GFP-tagged MTF2 shRNA clone or a scrambled shRNA control (ThermoFisher) at a MOI of 100. Cells were centrifuged at 400 g for 20 minutes, then maintained at 37° C. On Day 2, the infection was repeated. Cells were grown for 3 days using a fed-batch culture system^21, then sorted for high GFP-expression and viability by negative selection of Propidium Iodide using the Beckman Coulter MoFlo sorter.
# (§4) Apoptosis was assessed in sorted cells by the dual staining of AnnexinV and 7-AAD (eBiosciences). Flow cytometric analyses of treated samples were performed consistently, using the same gating strategy throughout. Viable cells were categorized as being AnnexinV and 7-AAD negative, late apoptotic/dead cells were categorized as being AnnexinV and 7-AAD positive.
# as §3
# [4] = system: MTF2 deficient refractory AML cells [MD-AML]; assay: Cell viability / apoptosis assay (Annexin V/7-AAD) in primary AML patient cells; settings: for viability of CD34+CD38− cells from MD-AML patients: 0.5 μM Daunorubicin or 1 μM Cytarabine, over 48 hours; for apoptosis: MD-AML cells, in combination with Cytarabine or Daunorubicin; for sensitivity to Cytarabine / sensitivity to Daunorubicin: MD-AML, comparable to B-AML; for sensitivity to Cytarabine: combination with Cytarabine; for sensitivity to Daunorubicin: combination with Daunorubicin; for apoptosis / apoptotic effect, MDM2 inhibitor alone: treatment alone, over the course of 48 hours
# Description: Lin^−CD34^+ primary AML bone marrow cells were maintained in IMDM media containing SCF (100 ng/mL), FLT3 (50 ng/mL), IL-3 (20 ng/mL), G-CSF (20 ng/mL) and 10^−4M Beta-mercaptoethanol^21. Growth factors were purchased from Peprotech. On Day 1 of infection, cells were incubated with polybrene (6 mg/ml) for 2 hours at 37° C., then combined with viral supernatants containing either a GFP-tagged MTF2 overexpression vector clone or an empty vector control at a MOI of 30.
# as §4, §3
# [5] = system: p53 levels in Lin−CD34+ leukemic cells (MD-AML); assay: Imaging flow cytometry of p53 levels in refractory patient leukemic cells; settings: Lin−CD34+ leukemic cells from refractory patient BM aspirates (MD-AML)
# Description: as §1, §2
# Lin^−CD34^+ cells isolated from either umbilical cord blood or primary AML patient bone marrow aspirates were transduced as above, sorted for GFP^+ and cultured in 96-well plates at 100,000 cells/100 uL/well in duplicates. […]
# MDM2 and p53 levels = assay: Imaging flow cytometry of MDM2 and p53 levels in MTF2 knockdown HSPCs; settings: for MDM2 and p53 levels within the nucleus: MTF2 knockdown (SH3) HSPCs, 1 μM
# Description: as §1, §2, §3
# [6] = MTF2 knockdown (SH7) HSPCs, 1 uM
Compound,fraction of viable MTF2-deficient cells that were PCNA+ [1],DNA damage accumulation (Olive moment) (Lin−CD34+ HSPCs [2]),"viability at 1 µM (Lin−CD34+ HSPCs [3]; Homo sapiens, MTF2 shRNA knockdown HSPCs, 48 hours after treatment (Daunorubicin 0.5 μM or Cytarabine 1 μM), read-out: MTF2-deficient cells viable) [%]",viability of CD34+CD38− cells from MD-AML patients [4],overall PCNA levels (proliferation) [1],population distribution within the cell cycle stages [1],DNA damage accumulation (Lin−CD34+ HSPCs [2]),sensitivity to induction therapy drugs (cell viability) (Lin−CD34+ HSPCs [3]),p53 levels [5],apoptosis [4],sensitivity to Cytarabine ([4]; 48 hours),sensitivity to Cytarabine ([4]; within 24 hours),sensitivity to Daunorubicin ([4]; 48 hours),sensitivity to Daunorubicin ([4]; within 24 hours),"apoptosis / apoptotic effect, MDM2 inhibitor alone [4]",p53 levels (MDM2 and p53 levels; MTF2-deficient HSPCs),MDM2 and p53 levels within the nucleus (MDM2 and p53 levels),MDM2 levels (MDM2 and p53 levels; [6]),p53 levels (MDM2 and p53 levels; [6]),"apoptosis / apoptotic effect, MDM2 inhibitor alone ([4]; listed as Nutlin3a)"
Nc1ccn([C@@H]2O[C@H](CO)[C@@H](O)[C@@H]2O)c(=O)n1 [Cytarabine],two-thirds,highest levels of DNA damage were found in the scramble control HSPCs,> 60,remain viable over 48 hours,–,–,–,–,–,–,–,–,–,–,–,–,–,–,–,–
COc1cccc2c1C(=O)c1c(O)c3c(c(O)c1C2=O)C[C@@](O)(C(C)=O)C[C@@H]3O[C@H]1C[C@H](N)[C@H](O)[C@H](C)O1 [Daunorubicin],two-thirds,highest levels of DNA damage were found in the scramble control HSPCs,–,remain viable over 48 hours,–,–,–,–,–,–,–,–,–,–,–,–,–,–,–,–
"CC(C)(C)C[C@H]1N[C@@H](C(=O)NC2CCC(O)CC2)[C@H](c2cccc(Cl)c2F)[C@@]12C(=O)Nc1cc(Cl)ccc12 (stereo partly drawn) [MI-773, (2′R,3S,3′S,5′R)-6-chloro-3′-(3-chloro-2-fluorophenyl)-5′-(2,2-dimethylpropyl)-N-(4-hydroxycyclohexyl)-2-oxospiro[1H-indole-3,4′-pyrrolidine]-2′-carboxamide]",–,–,–,–,decrease in overall PCNA levels,arresting in G0/G1,same amount of DNA damage accumulation as that found within scramble controls,sensitized to induction therapy drugs,rescued,underwent apoptosis,increased sensitivity,increased sensitivity,increased sensitivity,increased sensitivity,very low apoptotic effect,rescued,reestablished MDM2 and p53 levels to those observed in the scramble untreated control,low,restored,–
"COc1ccc(C2=N[C@@H](c3ccc(Cl)cc3)[C@@H](c3ccc(Cl)cc3)N2C(=O)N2CCNC(=O)C2)c(OC(C)C)c1 [Nutlin3A, 4-[(4S,5R)-4,5-bis(4-chlorophenyl)-2-(4-methoxy-2-propan-2-yloxyphenyl)-4,5-dihydroimidazole-1-carbonyl]piperazin-2-one]",–,–,–,–,decrease in overall PCNA levels,arresting in G0/G1,same amount of DNA damage accumulation as that found within scramble controls,sensitized to induction therapy drugs,rescued,underwent apoptosis,increased sensitivity,increased sensitivity,increased sensitivity,increased sensitivity,–,rescued,reestablished MDM2 and p53 levels to those observed in the scramble untreated control,low,restored,very low apoptotic effect
